Experimental data from patent US11160796B2, “Anti-androgens for the treatment of non-metastatic castration-resistant prostate cancer” (priority 2017, dated 2021).
Entries after “also recorded” stand apart in the source; their conditions may differ.

Tests used:
[1] = Plasma protein binding; conditions: plasma
[2] = In vitro chromosome aberration test; assay type: cell-based
[3] = test system: castration-resistant LNCaP/AR-Luc xenograft model; conditions: non-castrate hormone-sensitive and bicalutamide-resistant models (Clegg et al.); cited from earlier work
[4] = test system: BCRP/OATP1B1; assay: Drug-drug interaction study, cocktail approach: rosuvastatin; set-up: species or system human; conditions: in vivo
[5] = biological target: T1, CYP3A4 (Homo sapiens, UniProt P08684); assay: Contribution of CYP3A4 in the metabolism of apalutamide; assay type: in vivo; conditions: estimated
T1 construct: from tissue; host or cells: human subjects, in vivo (clinical pharmacology)
T1 sequence (P08684 whole entry): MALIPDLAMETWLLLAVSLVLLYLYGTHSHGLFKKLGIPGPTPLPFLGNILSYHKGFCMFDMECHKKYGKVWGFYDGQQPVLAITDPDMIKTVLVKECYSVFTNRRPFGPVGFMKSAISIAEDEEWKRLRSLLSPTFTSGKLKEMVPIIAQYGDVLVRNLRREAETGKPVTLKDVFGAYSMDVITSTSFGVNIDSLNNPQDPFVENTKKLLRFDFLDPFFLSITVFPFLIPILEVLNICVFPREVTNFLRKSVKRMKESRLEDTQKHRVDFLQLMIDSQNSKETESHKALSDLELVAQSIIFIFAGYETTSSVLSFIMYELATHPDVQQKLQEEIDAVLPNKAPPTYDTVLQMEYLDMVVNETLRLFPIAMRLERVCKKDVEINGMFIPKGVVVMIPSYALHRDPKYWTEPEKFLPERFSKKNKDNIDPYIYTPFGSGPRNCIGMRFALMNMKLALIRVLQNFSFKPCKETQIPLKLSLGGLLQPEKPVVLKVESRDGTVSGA

[6] = Dedicated QT study in patients with CRPC; assay type: in vivo, human; conditions: 240 mg once daily
From the text: There was no difference greater than 20 ms in the mean QT interval change from baseline, based on the Fridericia correction method, across all timepoints at steady-state.
The maximum mean QTcF change from baseline was 12.4 ms (2-sided 90% upper CI: 16.0 ms).

[7] = test system: BCRP, OATP1B1, and OATP1B3; conditions: not told
[8] = Single-dose and repeat-dose toxicology studies in male rats
From the text: Single-dose and repeat-dose toxicology studies up to 13 weeks of dosing have been conducted in male Sprague Dawley (SD) rats and male Beagle dogs (repeat-dose studies only).

[9] = Phase III study (SPARTAN, Study 1): safety; assay type: in vivo, human
From the text: SPARTAN, a randomized (2:1), double-blind, placebo-controlled, multi-center clinical study, enrolled patients who had non-metastatic, castration-resistant prostate cancer (NM-CRPC).

[10] = Physicochemical description (ionization, solubility)
From the text: The Chemical name is (4-[7-(6-Cyano-5-trifluoromethylpyridin-3-yl)-8-oxo-6-thioxo-5,7-diazaspiro[3.4]oct-5-yl]-2-fluoro-N-methylbenzamide). Apalutamide is a white to slightly yellow powder.

[11] = test system: castration-resistant prostate cancer (CRPC); assay: Phase II clinical trial of apalutamide 240 mg daily in CRPC; assay type: in vivo, human; conditions: for 12-week PSA declines of >50% or more from baseline (% of patients): preliminary
From the text: The primary objective was to assess antitumor activity and PSA kinetics as defined by the Prostate Cancer Clinical Trials Working Group (PCWG2) criteria. […] The median time to PSA progression was not reached for the TN cohort during the preliminary 12-week period, and was 16 weeks in the PA cohort.
The median time to PSA progression was not reached in this observed time period.

[12] = biological target: T2, CYP2C8 (Homo sapiens, UniProt P10632); assay: Drug-drug interaction study, cocktail approach: CYP2C8 substrate; conditions: in vivo
T2 construct: from tissue; host or cells: human subjects, in vivo (clinical pharmacology)
T2 sequence (P10632 1-490): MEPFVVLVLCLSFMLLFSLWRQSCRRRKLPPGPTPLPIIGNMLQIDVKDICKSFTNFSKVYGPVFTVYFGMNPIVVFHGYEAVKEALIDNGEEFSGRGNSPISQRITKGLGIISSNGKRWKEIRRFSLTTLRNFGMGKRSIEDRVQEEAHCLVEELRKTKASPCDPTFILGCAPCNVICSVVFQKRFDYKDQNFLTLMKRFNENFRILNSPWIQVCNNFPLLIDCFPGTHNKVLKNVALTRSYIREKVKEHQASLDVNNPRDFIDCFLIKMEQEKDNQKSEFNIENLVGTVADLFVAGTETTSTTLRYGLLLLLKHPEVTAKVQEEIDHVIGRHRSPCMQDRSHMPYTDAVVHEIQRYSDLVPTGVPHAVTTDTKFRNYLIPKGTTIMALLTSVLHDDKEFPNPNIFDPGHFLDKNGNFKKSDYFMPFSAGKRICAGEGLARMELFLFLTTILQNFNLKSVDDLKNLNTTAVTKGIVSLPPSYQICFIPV

[13] = Single oral administration of 14C-labeled apalutamide 240 mg (metabolite profile, excretion)
[14] = test system: organic cation transporter 2 (OCT2), organic anion transporter 3 (OAT3) and multidrug and toxin extrusions (MATEs); assay: In vitro transporter inhibition: OCT2, OAT3, MATEs; assay type: in vitro ADME

For CNC(=O)c1ccc(N2C(=S)N(c3cnc(C#N)c(C(F)(F)F)c3)C(=O)C23CCC3)cc1F [apalutamide, 4-[7-(6-cyano-5-trifluoromethylpyridin-3-yl)-8-oxo-6-thioxo-5,7-diazaspiro[3.4]oct-5-yl]-2-fluoro-N-methylbenzamide], the fraction unbound [1] is listed as 0.04, the “genotoxicity, in vitro chromosome aberration” value [2] is listed as “not genotoxic” and the “tumor regression in human prostate cancer xenograft models” value [3] is listed as “partial or complete tumor regression”. For the same molecule, the BCRP/OATP1B1 inducer clinically [4] was “weak and weak inducer”, the “impact on Cmax of rosuvastatin” value [4] was “no impact” and the “contribution of CYP3A4 in the metabolism” value ([5]; at steady-state) was 37%. The “contribution of CYP3A4 in the metabolism” value ([5]; following single dose) was 13%, the “maximum mean QTcF change from baseline” value ([6]; 45 patients with CRPC) was 12.4 ms and the “difference in mean QT interval change from baseline (Fridericia correction)” value ([6]; all timepoints at steady-state) was no more than 20 ms. For the same molecule, the “substrate for BCRP, OATP1B1, and OATP1B3” value [7] was “not BCRP, OATP1B1, and OATP1B3”, the well tolerated dose ([8]; 13-weeks study, once daily oral gavage, male SD rats) was “up to 100 mg/kg/day” and the “dose with reproductive system findings (atrophy, aspermia/hypospermia, degeneration, hyperplasia or hypertrophy)” value ([8]; male, Sprague Dawley, rat, in vivo) was greater than 25 mg/kg/day. The NOAEL at 13 weeks ([8]; male, Sprague-Dawley, rat, in vivo) was 100 mg/kg/day, the “increase in cholesterol from controls” value ([8]; rat, in vivo, 150 mg/kg/day) was “greater than 200%” and the Arthralgia ([9]; All Grades) was 15.9%. For the same molecule, the Fall ([9]; All Grades) was 15.6%, the “Fracture (grouped term)” value ([9]; All Grades) was 11.7% and the Hypercholesterolemia ([9]; All Grades) was 6.1%. For the same molecule, the Hypertriglyceridemia ([9]; All Grades) was 3.5%, the “Hypothyroidism (grouped term)” value ([9]; All Grades) was 8.1% and the Pruritus ([9]; All Grades) was 6.2%. For the same molecule, the Seizure ([9]; All Grades) was 0.2%, the “Skin rash (grouped term)” value ([9]; All Grades) was 24% and the Weight decreased ([9]; All Grades) was 16.1%. For the same molecule, the Fatigue ([9]; All Grades, N = 803) was 30.4%, the “Skin rash (grouped term)” value ([9]; All Grades, listed as Apalutamide) was 23.8% and the Arthralgia ([9]; Grade 3-4) was 0%. For the same molecule, the Fall ([9]; Grade 3-4) was 1.7%, the Fatigue ([9]; Grade 3-4) was 0.9% and the “Fracture (grouped term)” value ([9]; Grade 3-4) was 2.7%. For the same molecule, the Hypercholesterolemia ([9]; Grade 3-4) was 0%, the Hypertriglyceridemia ([9]; Grade 3-4) was 0.6% and the “Hypothyroidism (grouped term)” value ([9]; Grade 3-4) was 0%. The Pruritus ([9]; Grade 3-4) was 0.2%, the Seizure ([9]; Grade 3-4) was 0% and the “Skin rash (grouped term)” value ([9]; Grade 3-4) was 5.2%. The Weight decreased ([9]; Grade 3-4) was 1.1%, the “onset of skin rash, median” value ([9]; days of treatment) was 82 days and the “Grade 3 skin rashes (covering >30% body surface area)” value ([9]; in vivo) was 5.2%. For the same molecule, the “Hypothyroidism in patients already receiving thyroid replacement therapy” value ([9]; in vivo) was 28%, the “Hypothyroidism in patients not receiving thyroid replacement therapy” value ([9]; in vivo) was 5.7% and the “discontinuations due to adverse events” value ([9]; in vivo) was 11%. For the same molecule, the “dose interruption among patients with skin rash” value ([9]; in vivo) was 28%, the “dose reduction among patients with skin rash” value ([9]; in vivo) was 12% and the “dose reduction, reason "other"” value ([9]; in vivo) was 9.7%. The “dose reduction, reason adverse event” value ([9]; in vivo) was 11%, the “patients whose skin rash resolved” value ([9]; in vivo) was 81% and the “recurrence of skin rash in patients who were re-challenged” value ([9]; in vivo) was “approximately half”. For the same molecule, the “subjects receiving no dose modifications” value ([9]; in vivo) was 79%, the “subjects with 2 dose interruptions” value ([9]; in vivo) was 6.6% and the “subjects with dose interruptions due to TEAEs” value ([9]; in vivo) was 34%. For the same molecule, the “subjects with dose reductions” value ([9]; in vivo) was 21%, the “subjects with one dose interruption” value ([9]; in vivo) was 22% and the “subjects with one dose reduction” value ([9]; in vivo) was 8.2%. The “subjects with two dose reductions” value ([9]; in vivo) was 13%, the “time to resolution of rash from onset, median” value ([9]; in vivo) was 60 days and the “treatment discontinuation among patients who experienced skin rash” value ([9]; in vivo) was 9%. For the same molecule, the solubility ([10]; aqueous media over a wide range of pH values) was “practically insoluble”, the ionization ([10]; relevant physiological pH condition) was “not ionizable” and the “median time to PSA progression” value ([11]; PA cohort) was 16 weeks. For the same molecule, the “12-week PSA declines of >50% or more from baseline (% of patients)” value ([11]; PA cohort (progressed after abiraterone acetate plus prednisone), 240 mg oral daily) was 29%, the “12-week PSA declines of >50% or more from baseline (% of patients)” value ([11]; TN cohort (treatment-naive metastatic CRPC), 240 mg oral daily) was 88% and the “median time to PSA progression” value ([11]; TN cohort, preliminary 12-week period) was “not reached”. The “objective response rate (by RECIST)” value ([11]; TN patients with measurable disease at baseline) was 63%, the “patients with >50% decline in PSA as compared to baseline” value ([11]; non-metastatic CRPC, 240 mg oral daily, 12 weeks) was 91% and the “patients with >50% decline in PSA” value ([11]; non-metastatic CRPC, 24 weeks) was 91%. For the same molecule, the “patients with >90% decline in PSA” value ([11]; non-metastatic CRPC, 24 weeks) was 55%, the “median time to PSA progression” value ([11]; non-metastatic CRPC, observed time period) was “not reached” and the “changes in exposure to the CYP2C8 substrate” value [12] was “did not cause clinically meaningful changes”. For the same molecule, the “share of the total 14C-AUC in plasma” value ([13]; single oral 240 mg) was 45%, the “% of dose in feces as this compound” value ([13]; up to 70 days) was 1.5% and the “% of dose in urine as this compound” value ([13]; up to 70 days) was 1.2%. The “radioactivity recovered in feces” value ([13]; up to 70 days) was 24%, the “radioactivity recovered in urine” value ([13]; up to 70 days) was 65% and the radioactivity recovered ([13]; up to 70 days post-dose) was 89%. The “inhibition of OCT2, OAT3 and MATEs” value [14] was “cannot be excluded; also recorded: inhibit”.
